Data on 30 molecules can be found in ChEMBL document CHEMBL4342467, “Discovery of a Novel Dual-Target Inhibitor of ERK1 and ERK5 That Induces Regulated Cell Death to Overcome Compensatory Mechanism in Specific Tumor Types” (J Med Chem, 2020).

One assay relates to HeLa. The experiment in a line: Antiproliferative activity against human HeLa cells assessed as reduction in cell viability measured after 24 hrs. In kind it is functional, cell-based.
Assay [1] concerns the target Mitogen-activated protein kinase 7 (Homo sapiens) (UniProt Q13164). In words: Inhibition of ERK5 (unknown origin) at 1 uM by Z'-Lyte assay relative to control.
For assay [2], the target named is Mitogen-activated protein kinase 1 (Homo sapiens) (UniProt P28482). The experiment in a line: Inhibition of ERK2 (unknown origin) at 1 uM by Z'-Lyte assay relative to control.
Mitogen-activated protein kinase 1 (Homo sapiens), sequence (P28482 whole entry): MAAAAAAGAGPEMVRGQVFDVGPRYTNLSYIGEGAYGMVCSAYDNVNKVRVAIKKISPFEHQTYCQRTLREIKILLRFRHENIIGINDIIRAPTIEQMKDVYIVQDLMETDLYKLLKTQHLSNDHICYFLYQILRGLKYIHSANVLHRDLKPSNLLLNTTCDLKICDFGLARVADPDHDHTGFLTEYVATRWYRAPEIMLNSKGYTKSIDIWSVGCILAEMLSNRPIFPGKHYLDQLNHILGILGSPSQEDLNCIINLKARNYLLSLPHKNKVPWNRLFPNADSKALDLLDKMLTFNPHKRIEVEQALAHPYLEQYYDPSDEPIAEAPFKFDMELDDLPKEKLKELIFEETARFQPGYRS
A further assay deals with MKN-74. The experiment in a line: Antiproliferative activity against human MKN74 cells assessed as reduction in cell viability measured after 24 hrs. The settings on record: MKN-74, 24 h. Type of assay: functional, cell-based.
The test system of the next assay is HL-60. The experiment in a line: Antiproliferative activity against human HL60 cells assessed as reduction in cell viability measured after 24 hrs. Type of assay: functional, cell-based. The conditions noted are these: HL-60, 24 h.
For assay [3], the target named is Mitogen-activated protein kinase 3 (Homo sapiens) (UniProt P27361). The experiment in a line: Inhibition of ERK1 (unknown origin) at 1 uM by Z'-Lyte assay relative to control.
Mitogen-activated protein kinase 3 (Homo sapiens), sequence (P27361 whole entry): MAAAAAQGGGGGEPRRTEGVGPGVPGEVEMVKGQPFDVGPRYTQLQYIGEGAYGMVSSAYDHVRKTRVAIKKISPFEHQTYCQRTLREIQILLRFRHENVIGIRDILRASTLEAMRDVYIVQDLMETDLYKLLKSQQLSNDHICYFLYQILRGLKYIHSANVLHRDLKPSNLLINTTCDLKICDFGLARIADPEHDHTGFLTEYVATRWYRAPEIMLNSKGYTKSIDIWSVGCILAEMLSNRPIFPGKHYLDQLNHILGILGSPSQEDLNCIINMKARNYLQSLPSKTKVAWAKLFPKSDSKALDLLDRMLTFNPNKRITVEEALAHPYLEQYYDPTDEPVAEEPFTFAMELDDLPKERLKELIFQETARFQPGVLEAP

pIC50: −log10 of the molar value. Some results are limits rather than exact numbers.

Mitogen-activated protein kinase 7 (Homo sapiens), sequence (Q13164 2-816 limits assumed): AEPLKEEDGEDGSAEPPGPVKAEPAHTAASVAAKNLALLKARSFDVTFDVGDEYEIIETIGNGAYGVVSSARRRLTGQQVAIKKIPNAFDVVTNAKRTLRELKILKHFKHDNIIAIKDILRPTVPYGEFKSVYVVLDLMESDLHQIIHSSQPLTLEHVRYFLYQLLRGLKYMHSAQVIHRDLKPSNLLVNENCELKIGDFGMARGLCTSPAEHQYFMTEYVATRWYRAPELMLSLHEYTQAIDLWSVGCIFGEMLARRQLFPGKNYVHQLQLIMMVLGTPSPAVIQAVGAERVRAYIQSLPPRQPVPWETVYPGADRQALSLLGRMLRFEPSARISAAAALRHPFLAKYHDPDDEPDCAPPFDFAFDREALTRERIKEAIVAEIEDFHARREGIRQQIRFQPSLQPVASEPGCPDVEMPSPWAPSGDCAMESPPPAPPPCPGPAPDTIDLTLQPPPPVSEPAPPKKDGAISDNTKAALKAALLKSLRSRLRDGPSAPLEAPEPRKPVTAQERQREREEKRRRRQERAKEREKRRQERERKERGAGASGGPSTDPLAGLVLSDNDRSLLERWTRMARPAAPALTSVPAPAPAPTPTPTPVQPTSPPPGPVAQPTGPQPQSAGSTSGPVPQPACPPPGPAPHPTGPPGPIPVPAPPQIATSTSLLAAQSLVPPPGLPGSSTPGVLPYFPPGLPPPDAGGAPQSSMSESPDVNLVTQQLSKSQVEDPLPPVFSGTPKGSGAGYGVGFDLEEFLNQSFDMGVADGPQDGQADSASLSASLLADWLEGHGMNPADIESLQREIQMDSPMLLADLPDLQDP

`COc1ccccc1NC(=S)N1CCc2c(sc(NC(=O)c3ccccc3C(F)(F)F)c2C(N)=O)C1`: the pIC50 in the assay with HeLa was less than 4.30; with MKN-74 it was 4.46; in the assay on HL-60, less than 4.30. The inhibition in assay [1] is 61.7%; in assay [2] it was 74.9%; in assay [3] it was 77.6%.
Take `NC(=O)c1c(NC(=O)c2cccc([N+](=O)[O-])c2)sc2c1CCN(C(=O)Nc1ccccc1Cl)C2`: the pIC50 with HeLa is less than 4.30; in the assay on MKN-74 it was 4.64; in the assay with HL-60, 4.73. For the same molecule, the inhibition in assay [1] came out at 65.7%; in assay [2], 60.4%; in assay [3], 71.3%.
On to `Cc1ccccc1NC(=S)N1CCc2c(sc(NC(=O)c3ccccc3C)c2C(N)=O)C1`, for which the pIC50 with HeLa, in the assay with MKN-74 and in the assay with HL-60 was less than 4.30 throughout. Moreover, the inhibition in assay [1] came to 37.1%; in assay [2], 43%; in assay [3], 48.3%.
Regarding `NC(=O)c1c(NC(=O)c2ccccc2I)sc2c1CCN(C(=S)Nc1ccccc1C(F)(F)F)C2`, the pIC50 with HeLa is 4.31; with MKN-74, 4.85; in the assay on HL-60 it was 4.71. Further, the inhibition in assay [1] is 64.8%; in assay [2], 80.7%; in assay [3] it was 77.5%.
In the case of `NC(=O)c1c(NC(=O)c2ccccc2Cl)sc2c1CCN(C(=O)Nc1cc(C(F)(F)F)cc(C(F)(F)F)c1)C2`, the pIC50 is 4.41 in the assay on HeLa, 4.61 in the assay on MKN-74 and 4.57 in the assay on HL-60. The inhibition in assay [1] was found to be 80.3%; in assay [2], 89.2%; in assay [3], 91%.
For `NC(=O)c1c(NC(=O)c2ccccc2Cl)sc2c1CCN(C(=O)Nc1c(Cl)cccc1Cl)C2`, the negative-log IC50 (pIC50) with HeLa is 4.57; with MKN-74 it was 4.61; in the assay with HL-60, 4.75. Besides, the inhibition in assay [1] is 82.7%; in assay [2], 85%; in assay [3], 82.7%.
Take `NC(=O)c1c(NC(=O)c2ccc(C(F)(F)F)cc2)sc2c1CCN(C(=S)Nc1ccccc1Cl)C2`: the pIC50 in the assay on HeLa is 4.36; in the assay on MKN-74, 4.78; in the assay on HL-60 it was 4.44. Moreover, the inhibition in assay [1] came to 57.5%; in assay [2] it was 79%; in assay [3] it was 75.6%.
With `NC(=O)c1c(NC(=O)c2ccccc2Cl)sc2c1CCN(C(=S)Nc1ccccc1Br)C2`, the pIC50 with HeLa is 4.61; with MKN-74, 4.96; with HL-60, 5.04. Also, the inhibition in assay [1] is 88.5%; in assay [2], 86.9%; in assay [3] it was 90.9%.
Turning to `NC(=O)c1c(NC(=O)c2ccccc2F)sc2c1CCN(Cc1ccc(Cl)cc1Cl)C2`, the negative logarithm of the IC50 (pIC50) with HeLa is 4.56; with MKN-74 it was 5.02; in the assay on HL-60, 4.88. The values for the inhibition in assay [1], in assay [2] and in assay [3] were 38%, 32.4% and 55.7%, respectively.
As to `NC(=O)c1c(NC(=O)c2ccccc2F)sc2c1CCN(C(=S)Nc1cc(C(F)(F)F)cc(C(F)(F)F)c1)C2`, the pIC50 is 4.55 with HeLa, 4.88 with MKN-74 and 4.75 with HL-60. Besides, the results for the inhibition in assay [1], in assay [2] and in assay [3] were 77.3%, 68.6% and 76.6%, respectively.
As for `NC(=O)c1c(NC(=O)c2cccc([N+](=O)[O-])c2)sc2c1CCN(Cc1ccc(Cl)cc1Cl)C2`, the pIC50 in the assay on HeLa was 4.48; with MKN-74 it was 4.78; with HL-60, 4.70. Further, the values for the inhibition in assay [1], in assay [2] and in assay [3] were 77.9%, 65.3% and 67.2%, respectively.
As to `NC(=O)c1c(NC(=O)c2ccc(C(F)(F)F)cc2)sc2c1CCN(C(=S)Nc1cc(C(F)(F)F)cc(C(F)(F)F)c1)C2`, the pIC50 is 4.31 with HeLa, 4.86 in the assay with MKN-74 and 4.79 in the assay on HL-60. Further, the inhibition in assay [1] turned out to be 54.2%; in assay [2] it was 66%; in assay [3], 79.4%.
With `NC(=O)c1c(NC(=O)c2ccccc2C(F)(F)F)sc2c1CCN(C(=S)Nc1ccccc1Br)C2`, the figures for the pIC50 with HeLa, in the assay on MKN-74 and with HL-60 were less than 4.30, 4.62 and 4.59, respectively. Moreover, the inhibition was determined as 73.3% in assay [1], 85.5% in assay [2] and 82.5% in assay [3].
`NC(=O)c1c(NC(=O)c2ccccc2Cl)sc2c1CCN(C(=S)Nc1c(Cl)cccc1Cl)C2`: the pIC50 in the assay on HeLa is 4.58; with MKN-74 it was 5.40; in the assay on HL-60 it was 5.40. In addition, the inhibition in assay [1] was 88%; in assay [2] it was 90.5%; in assay [3] it was 90.7%.
As to `NC(=O)c1c(NC(=O)c2ccccc2Cl)sc2c1CCN(C(=S)Nc1ccccc1-c1ccccc1)C2`, the pIC50 with HeLa is 4.60; with MKN-74, 4.59; in the assay with HL-60, 4.46. The inhibition in assay [1] worked out at 40.5%; in assay [2], 64.7%; in assay [3], 60.9%.
In the case of `Cc1ccccc1C(=O)Nc1sc2c(c1C(N)=O)CCN(C(=S)Nc1ccccc1C(F)(F)F)C2`, the pIC50 in the assay with HeLa was less than 4.30; in the assay on MKN-74, 4.76; with HL-60, 4.64. Further, the inhibition turned out to be 60.1% in assay [1], 76.9% in assay [2] and 72% in assay [3].
On to `NC(=O)c1c(NC(=O)c2ccccc2Cl)sc2c1CCN(C(=S)Nc1ccccc1I)C2`, for which the results for the pIC50 in the assay with HeLa, in the assay on MKN-74 and in the assay on HL-60 were 4.54, 5.58 and 5.35, respectively. Moreover, the inhibition in assay [1] amounted to 81%; in assay [2], 87.3%; in assay [3] it was 88%.
As for `NC(=O)c1c(NC(=O)c2ccccc2)sc2c1CCN(C(=S)Nc1ccccc1)C2`, the pIC50 with HeLa, with MKN-74 and in the assay with HL-60 was less than 4.30 each time. The inhibition in assay [1] came to 61.4%; in assay [2], 66.3%; in assay [3], 65.8%.
Take `NC(=O)c1c(NC(=O)c2ccccc2Cl)sc2c1CCN(C(=S)Nc1ccccc1)C2`: the pIC50 with HeLa is 4.33; with MKN-74, 4.81; in the assay on HL-60 it was 5.23. In addition, the inhibition is 59.5% in assay [1], 76.5% in assay [2] and 85.4% in assay [3].
`NC(=O)c1c(NC(=O)c2ccccc2Cl)sc2c1CCN(C(=O)Nc1ccccc1Cl)C2`: the pIC50 in the assay with HeLa is 4.34; in the assay with MKN-74, 4.79; in the assay with HL-60 it was 4.90. Further, the values for the inhibition in assay [1], in assay [2] and in assay [3] were 89.9%, 88.4% and 89.2%, respectively.
As for `CSc1ccccc1NC(=S)N1CCc2c(sc(NC(=O)c3ccccc3Cl)c2C(N)=O)C1`, the results for the pIC50 in the assay on HeLa, in the assay with MKN-74 and in the assay on HL-60 were 4.36, 4.86 and 4.84, respectively. For the same molecule, the results for the inhibition in assay [1], in assay [2] and in assay [3] were 52.6%, 64.6% and 69.5%, respectively.
As for `NC(=O)c1c(NC(=O)c2ccccc2Cl)sc2c1CCN(C(=S)Nc1cccnc1)C2`, the negative-log IC50 (pIC50) in the assay on HeLa is less than 4.30; in the assay on MKN-74, 4.41; in the assay on HL-60, 4.47. The inhibition is 34.9% in assay [1], 45.4% in assay [2] and 41.9% in assay [3].
Turning to `NC(=O)c1c(NC(=O)c2ccc(C(F)(F)F)cc2)sc2c1CCN(Cc1ccc(Cl)cc1)C2`, the negative-log IC50 (pIC50) in the assay with HeLa, with MKN-74 and in the assay with HL-60 was less than 4.30 each time. Further, the inhibition in assay [1] was 61.1%; in assay [2] it was 43.3%; in assay [3], 47.8%.
Take `NC(=O)c1c(NC(=O)c2ccc(C(F)(F)F)cc2)sc2c1CCN(Cc1ccc(Cl)cc1Cl)C2`: the values for the pIC50 with HeLa, in the assay on MKN-74 and with HL-60 were less than 4.30, 4.96 and 4.83, respectively. The inhibition in assay [1] turned out to be 40%; in assay [2], 33.2%; in assay [3], 39.6%.
`Cc1ccccc1CN1CCc2c(sc(NC(=O)c3ccccc3Cl)c2C(N)=O)C1`: the pIC50 in the assay with HeLa, in the assay on MKN-74 and in the assay on HL-60 was less than 4.30 in each case. The inhibition in assay [1] is 55.3%; in assay [2], 53.4%; in assay [3], 60.6%.
For the molecule `NC(=O)c1c(NC(=O)c2cccc([N+](=O)[O-])c2)sc2c1CCN(C(=S)Nc1ccccc1Cl)C2`, the results for the negative-log IC50 (pIC50) in the assay on HeLa, in the assay on MKN-74 and in the assay on HL-60 were 4.39, 5.05 and 5.15, respectively. Moreover, the inhibition in assay [1] was found to be 70.7%; in assay [2], 58.5%; in assay [3] it was 64.2%.
As for `CCCCCC(=O)Nc1sc2c(c1C(N)=O)CCN(C(=S)NCCCC)C2`, the negative-log IC50 (pIC50) with HeLa, in the assay on MKN-74 and with HL-60 was less than 4.30 in each case. Besides, the inhibition in assay [1] was found to be 43.3%; in assay [2], 68.5%; in assay [3] it was 60.5%.
For the molecule `Cc1ccccc1C(=O)Nc1sc2c(c1C(N)=O)CCN(C(=S)Nc1ccccc1Cl)C2`, the pIC50 in the assay on HeLa is 4.45; in the assay with MKN-74 it was 4.96; with HL-60, 4.68. The results for the inhibition in assay [1], in assay [2] and in assay [3] were 53%, 65.9% and 70.6%, respectively.
For `CSc1ccccc1C(=O)Nc1sc2c(c1C(N)=O)CCN(C(=S)Nc1ccccc1Cl)C2`, the negative-log IC50 (pIC50) was 4.46 in the assay on HeLa, 5.18 in the assay on MKN-74 and 4.52 with HL-60. The inhibition amounted to 49.1% in assay [1], 63.4% in assay [2] and 67.2% in assay [3].
Consider `NC(=O)c1c(NC(=O)c2ccccc2Cl)sc2c1CCN(Cc1ccccc1)C2`, for which the pIC50 with HeLa is 4.42; in the assay with MKN-74 it was 4.84; in the assay with HL-60 it was 4.92. Further, the inhibition in assay [1] stood at 63.7%; in assay [2], 62.9%; in assay [3] it was 60.1%.
